Reference: patent US20100247461A1, “ANTI-INFLAMMATORY COMPLEXES” (Signum Biosciences, Inc., priority 2009, published 2010)
In brackets after ≈: the same amount, converted by molar mass.

Experiments:
[1] = test system: MPO activity (neutrophil infiltration) in P. acnes-injected ear; assay: P. acnes-induced mouse ear model of inflammation - MPO endpoint; format: in vivo
Protocol: The methods for a model of P. acnes-inflammation are described elsewhere (Nakatsuji et al., J Invest Dermatol, 2008, 128: 2451-2457).
The protocol for inducing inflammation using P. acnes bacterial challenge on the mouse ear was slightly modified from the method described previously (Natatsuji et al., 2008). Briefly, Swiss Webster (ICR, 6-8 weeks old) mouse ears were injected with living P. acnes culture intradermally. An amount of 20 μl aliquots of living P. acnes (ATCC 6919, 3×10^6 CFU) suspended in PBS was intradermally injected in the central portion of the ear. As a control, 20 μl of PBS was injected into control animals.
To assay for inhibition of dermal neutrophil infiltration by AFC complexes, a standard method was used (see Bradley et al., J Invest Dermatol, 1982,78: 206-209; Young et al., J Invest Dermatol, 1983, 80: 48-52; De Young et al, Agents Actions, 1989, 26: 335-41; and Rao et al., Inflammation, 1993, 17: 723-41). Briefly, 6mm biopsy punches taken from both compound-treated ears as well as non-treated control ears were homogenized in 400 μl of 0.5% hexadecyltrimethylammonium bromide in 50 mM potassium phosphate buffer (pH 6.0) using the Fast Prep 24 (MP Biomedicals, Solon, Ohio). Supernatants were assayed for MPO activity using a model EL 340 96-well plate reader (BioTek Instruments, Winooski, Vt.). The percent inhibition of neutrophil infiltration by each AFC complex was determined by comparing the average MPO levels in the presence and absence of these compounds. The percent inhibition of MPO was determined by taking the average MPO activity of compound-treated ears and dividing it by the average MPO activity of 12 ears that only received the P. acnes challenge and subtracting that value from 100%. These values were corrected for the MPO activity of normal, non P. acnes-treated mouse ears of littermate controls. Summary of MPO activity ranges determined from an MPO activity assay for dexamethasone (administered at a dose of 1.6 mg/20 μL), clobetasol (administered at a dose of 0.1 mg/20 μL), salicylic acid (administered at a dose of 0.4 mg/20 μL), AFC (administered at a dose of 0.4 mg/20 μL), AFC-Strontium complex (administered at a dose of 0.4 mg/20 μL) and SFC-disodium are presented in Table 4. “+” indicates a range of 0-20%, “++” indicates a range of 20-40%, and “+++” indicates >40% inhibition.

[2] = test system: mouse skin reepithelialization; assay: Mouse wound healing model - skin reepithelialization; format: in vivo
Text: The healing of wounded skin is mediated by epidermal reepithelialization that requires keratinocyte migration. Glucocorticoids are known to inhibit wound healing (Ehrlich et al., Proc Soc Exp Biol Med, 1971, 137: 936-938; Leibovich et al., Am J Pathol, 1975, 78, 71-100). […] The methods for studying mouse skin reepithelialization using both partial and full thickness mouse wound healing models have been described elsewhere (Kim et al. Wound Repair Regen, 2001, 9: 386-390). In brief, for partial thickness wounds, a 3 mm-diameter circle of epidermis is removed from the ventral auricle. The resulting wound is cleansed and dressed with an occlusive polyurethane film. The mouse ears are excised on days 3, 5, 8, and 11 post-operation and fixed in 10% buffered formalin. Following day 8 post-operation, sampling of treated mice is performed to determine completion of healing. For full thickness wounds, mice heads are shaved and depilated prior to excising the skin. The cleaned and dressed wounds are harvested and fixed at days 3, 5, 8 and 10 and fixed in 10% buffered formalin.

[3] = test system: TPA-treated mouse ears (edema, ear thickness); assay: TPA mouse ear model of inflammation - edema inhibition; format: in vivo; conditions: TPA-treated mouse ear, at the dose tested; AFC oil n=1, data not shown
Protocol: In brief, mice were sedated and their ears were treated with 1.2 μg/20 uL TPA (i.e., tetradecanoylphorbol-13-acetate). After 5 minutes, we dosed these TPA-treated ears with a single 8 μg/20 μL dose, a 2 μg/20 μL dose, or both doses, of provided complexes. After 24 hours, the mice were sacrificed and edema was measured by taking micrometer readings of each ear. […] These values were corrected for the thickness of normal, non TPA-treated mouse ears of littermate controls.

[4] = test system: TPA-treated mouse ears (edema, ear thickness); assay: as above; format: in vivo; conditions: topical, 24 hours
[5] = test system: MPO (myeloperoxidase), neutrophil marker; assay: TPA mouse ear model of inflammation - MPO inhibition (dermal neutrophil infiltration); format: in vivo; conditions: for % MPO Inhibition in the Mouse Ear Inflammation Assay (4% concentration): topical, 24 hours
Protocol: Briefly, we homogenized 6mm biopsy punches taken from both compound-treated ears as well as TPA-treated and non-treated control groups. We quantitated the levels of MPO by a colorimetric reaction that was measured spectrophotometrically. The percent inhibition of neutrophil infiltration by each complex was determined by comparing the average MPO levels in the presence and absence of these compounds. The calculation for percent inhibition of MPO was determined similar to that as described for calculating the percent edema inhibition, see the Edema Inhibition protocol, supra.

[6] = test system: TPA-treated mouse ears (erythema, Δa* redness); assay: TPA mouse ear model of inflammation - erythema inhibition; format: in vivo; conditions: topical, 24 hours
Protocol: The protocol for measuring erythema inhibition by provided complexes was developed in-house by utilizing the CR-400 chroma meter from Konica Minolta (2). This instrument was used to measure the Δa*redness value from 6 mm biopsy punches taken 24 hours post TPA/compound treatment as described in the edema inhibition section above. […] These values were corrected for the Δa* value of non TPA-treated mouse ears of littermate controls.

[7] = test system: Propionibacterium acnes (strain ATCC 6919); assay: Inhibition of Propionibacterium acnes growth; format: cell-based; conditions: 72 hours, anaerobic, absorbance 600 nm, 1×10^6 CFU per mL
Protocol: The assay for the inhibition of growth of Propionibacterium acnes bacteria is described elsewhere (Nakatsuji et al., J Invest Dermatol, 2009, 129: 2480-2488). In brief, the strain ATCC 6919 of P. acnes (American Type Culture Collection, Manassas, Va.) was cultured on Brucella agar (R01254, Remel, Lenexa, Kans.) supplemented with 5% (v/v) defibrinated sheep blood, vitamin K (5 mg/ml, Remel, Lenexa, Kans.), and hemin (50 mg/ml, Remel, Lenexa, Kans.), under an anaerobic condition using Gas-Pak (BD, Sparks, Md.) at 37° C. A single colony was inoculated in Reinforced Clostridium Medium (Oxford, Hampshire, England) and cultured at 37° C. under the anaerobic condition. Each of the inventive complexes—AFC-Sr, AFC-Ag and AFC-Zn as well as AFC were dissolved in 100% (v/v) DMSO. Samples of each inventive complex, AFC and a solution of benzoyl peroxide (“BPO”) were then each incubated with an inoculum of P. acnes at a concentration of 1×10^6 CFU per mL in Reinforced Clostridium Medium in a 96-well microplate (100 μL per well) under anaerobic conditions for 72 hours. Samples of each were tested at final concentrations per well of 0.25 μg/mL, 0.5 μg/mL, 1.0 μg/mL, 1.95 μg/mL, 3.9 μg/mL, 7.8 μg/mL, 15.625 μg/mL, 31.25 μg/mL, 62.5 μg/mL, 125 μg/mL, 250μg/mL, and 500 μg/mL. A control well received only 5% (v /v) of DMSO in place of a sample of an inventive complex. After 72 hours incubation under anaerobic conditions, the P. acnes cultures in the 96-well microplate were mixed well and then absorbance readings at 600 nm were taken to determine bacterial growth. […] Growth curves of P. acnes determined for BPO, AFC, AFC-Sr, AFC-Ag and AFC-Zn are depicted in FIG. 3.

Compound	% Edema Inhibition in the Mouse Ear Inflammation Assay (4% concentration) [4]	% MPO Inhibition in the Mouse Ear Inflammation Assay (4% concentration) ([5]; TPA-treated mouse ear)	% Erythema Inhibition in the Mouse Ear Inflammation Assay (4% concentration) [6]	further results
C[C@H]1C[C@H]2[C@@H]3CCC4=CC(=O)C=C[C@]4(C)[C@@]3(F)[C@@H](O)C[C@]2(C)[C@@]1(O)C(=O)CCl [Clobetasol]	–	–	–	MPO % Inhibition ([1]; dose of 0.1 mg/20 μL): +++ (“+++” indicates >40% inhibition); effect on mouse skin reepithelialization of wounds [2]: significantly delayed
CC(=O)N[C@@H](CSC/C=C(\C)CC/C=C(\C)CCC=C(C)C)C(=O)O [AFC-Glucosamine complex, Glucosamine (R)-2-acetamido-3-((2E,6E)-3,7,11-trimethyldodeca-2,6,10-trienylthio)propanoate]	+++ (“+++” indicates >50% inhibition of edema)	++ (“++” indicates a range of 40-80%)	–	inhibition of edema [3]: 70.84±5.25%; inhibition of neutrophil infiltration ([5]; TPA-treated mouse ear, at the dose tested, AFC oil n=1, data not shown): 73.15±6.0%
[Cl-].[Cl-].[Sr+2] [Strontium chloride, reference compound]	+ (“+”indicates a range of 0-20%)	–	+ (“+”indicates a range of 0-20%)	biological activity compared with AFC-strontium complex (FIG. 1) ([5]; FIG. 1, follows the MPO discussion of b517, assay not named): no significant activity
CC(C)=CCC/C(C)=C/CC/C(C)=C/CSC[C@H](NC(=O)CCC(=O)[O-])C(=O)[O-].[Na+].[Na+] [SFC-disodium]	++ (“++” indicates a range of 20-50%)	++ (“++” indicates a range of 40-80%)	++ (“++” indicates a range of 20-40%)	MPO % Inhibition ([1]; dose not given): +++ (“+++” indicates >40% inhibition)
O=C(O)c1ccccc1O [Salicylic Acid]	–	–	–	MPO % Inhibition ([1]; dose of 0.4 mg/20 μL): ++ (“++” indicates a range of 20-40%)
Calcium 4-((R)-1-carboxy-2-((2E,6E)-3,7,11-trimethyldodeca-2,6,10-trienylthio)ethylamino)-4-oxobutanoate [SFC-calcium complex]	+++ (“+++” indicates >50% inhibition of edema)	++ (“++” indicates a range of 40-80%)	+++ (“+++” indicates >40% inhibition of erythema)	–
Zinc (R)-2-acetamido-3-((2E,6E)-3,7,11-trimethyldodeca-2,6,10-trienylthio)propanoate [AFC-Zinc complex]	–	–	–	IC50 (inhibition of P. acnes growth) [7]: 9.2 µg/mL
C[C@@H]1C[C@H]2[C@@H]3CCC4=CC(=O)C=C[C@]4(C)[C@@]3(F)[C@@H](O)C[C@]2(C)[C@@]1(O)C(=O)CO [Dexamethasone]	–	–	–	MPO % Inhibition ([1]; dose of 1.6 mg/20 μL): +++ (“+++” indicates >40% inhibition)
O=C(OOC(=O)c1ccccc1)c1ccccc1 [BPO, benzoyl peroxide, reference compound]	–	–	–	IC50 ([7]; Cutibacterium acnes, ATCC6919, 72 h, read-out: IC50 (inhibition of P. acnes growth)): 161 µg/mL (≈ 665 µM)
Strontium (R)-2-amino-3-((2E,6E)-3,7,11-trimethyldodeca-2,6,10-trienylthio)propanoate [Farnesyl Cysteine-Strontium complex]	++ (“++” indicates a range of 20-50%)	–	++ (“++” indicates a range of 20-40%)	–
CC(C)=CCC/C(C)=C/CC/C(C)=C/CSC[C@H](NC(=O)CCC(=O)O)C(=O)O [SFC, N-succinyl-S-farnesyl-L-cysteine]	+++ (“+++” indicates >50% inhibition of edema)	+++ (“+++” indicates >80% inhibition of MPO)	+ (“+”indicates a range of 0-20%)	–
CC(C)=CCC/C(C)=C/CC/C(C)=C/CSC[C@H](NC(=O)CCC(=O)[O-])C(=O)O.[Na+] [SFC-monosodium]	++ (“++” indicates a range of 20-50%)	++ (“++” indicates a range of 40-80%)	++ (“++” indicates a range of 20-40%)	–
